The source of these data is ChEMBL document CHEMBL6092169, “Development of selective heterocyclic PDE4 inhibitors for treatment of psoriasis” (Eur J Med Chem, 2024).

In test [1] the target is 3',5'-cyclic-AMP phosphodiesterase 4D (Homo sapiens, UniProt Q08499). Put plainly: Inhibition of full-length PDE4D2 (unknown origin) using FAM-cAMP as substrate at 1 uM preincubated with compound for 15 mins followed by substrate addition and measured after 30 mins by fluorescence polarization based IMAP assay relative to control. The conditions noted are these: time 45.0 min.
Sequence of 3',5'-cyclic-AMP phosphodiesterase 4D (Q08499 whole entry): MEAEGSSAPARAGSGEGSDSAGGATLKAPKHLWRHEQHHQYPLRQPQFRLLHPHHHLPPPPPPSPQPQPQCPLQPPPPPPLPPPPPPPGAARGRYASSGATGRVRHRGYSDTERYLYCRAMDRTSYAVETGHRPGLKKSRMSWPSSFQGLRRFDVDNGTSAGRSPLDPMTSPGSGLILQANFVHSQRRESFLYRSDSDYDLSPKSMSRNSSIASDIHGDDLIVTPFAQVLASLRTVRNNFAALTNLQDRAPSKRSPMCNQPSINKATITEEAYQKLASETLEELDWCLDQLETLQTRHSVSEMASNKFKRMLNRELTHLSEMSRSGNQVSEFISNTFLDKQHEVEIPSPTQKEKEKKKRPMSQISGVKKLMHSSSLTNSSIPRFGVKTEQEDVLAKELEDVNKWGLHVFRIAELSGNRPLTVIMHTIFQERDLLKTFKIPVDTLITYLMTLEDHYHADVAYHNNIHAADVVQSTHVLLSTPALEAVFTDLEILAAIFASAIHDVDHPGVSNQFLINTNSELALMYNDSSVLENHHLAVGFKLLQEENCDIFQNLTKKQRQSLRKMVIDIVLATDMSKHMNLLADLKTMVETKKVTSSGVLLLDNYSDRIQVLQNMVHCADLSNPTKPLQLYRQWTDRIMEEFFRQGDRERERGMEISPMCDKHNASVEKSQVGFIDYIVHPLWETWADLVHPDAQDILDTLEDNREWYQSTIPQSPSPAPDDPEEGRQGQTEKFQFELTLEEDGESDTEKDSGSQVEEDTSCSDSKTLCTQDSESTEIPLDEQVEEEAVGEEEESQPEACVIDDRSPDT

In test [2] the test system is RAW264.7. Put plainly: Anti-inflammatory activity in mouse RAW264.7 cells assessed as inhibition of LPS-induced TNF-alpha production at 10 uM incubated for 24 hrs by ELISA relative to control. The class given is functional. The arrangement: scale not given: the % may be the effect or the level left.

Turning to `O=C(Nc1nccs1)c1coc(-c2ccc(OC(F)F)c(OCC3CC3)c2)n1`, in test [1], the inhibition was determined as 57%. Besides, the Activity in test [2] amounted to 11.17%.

On to `O=C(NCc1cc(F)ccc1F)c1c[nH]c(-c2ccc(OC(F)F)c(OC(F)F)c2)n1`, for which the inhibition in test [1] amounted to 93.6%. Further, the Activity in test [2] was 14.69%.

As to `O=C(NCc1ccc2ccccc2c1)c1c[nH]c(-c2ccc(OC(F)F)c(OCC3CC3)c2)n1`, the inhibition in test [1] was determined as 82.3%. Moreover, the Activity in test [2] came to 9.03%.

As to `O=C(NCc1c(F)cc(F)cc1F)c1coc(-c2ccc(OC(F)F)c(OCC3CC3)c2)n1`, the inhibition in test [1] was found to be 87.8%. In addition, the Activity in test [2] came out at 7.53%.

With `O=C(O)c1c[nH]c(-c2ccc(OC(F)F)c(OCC3CC3)c2)n1`, in test [1], the inhibition was 35.7%. Moreover, in test [2], the Activity is listed as 4.22%.

With `O=C(Nc1ccncc1)c1c[nH]c(-c2ccc(OC(F)F)c(OCC3CC3)c2)n1`, in test [1], the inhibition was found to be 99.3%. Besides, the Activity in test [2] stood at 15.37%.

With `O=C(NCc1cnccn1)c1c[nH]c(-c2ccc(OC(F)F)c(OCC3CC3)c2)n1`, the inhibition in test [1] was determined as 95.9%. Moreover, the Activity in test [2] is listed as 16.03%.

`COc1cc(-c2nc(C(=O)Nc3ccc4ncsc4c3)c[nH]2)cc(OC)c1OC(F)F`: the inhibition in test [1] is 8.4%.

With `O=C(NCc1ccccn1)c1c[nH]c(-c2ccc(OC(F)F)c(OCC3CC3)c2)n1`, the inhibition in test [1] worked out at 96.7%. The Activity in test [2] was determined as 6.39%.

As to `COc1ccc(CNC(=O)c2c[nH]c(-c3ccc(OC(F)F)c(OCC4CC4)c3)n2)cn1`, the inhibition in test [1] was 94.1%. The Activity in test [2] stood at 7.74%.

`O=C(Nc1ccccc1)c1c[nH]c(-c2ccc(OC(F)F)c(OCC3CC3)c2)n1`: in test [1], the inhibition worked out at 64.9%. Besides, the Activity in test [2] is 9.32%.

For the molecule `O=C(NCc1ccc(F)cc1F)c1c[nH]c(-c2ccc(OC(F)F)c(OC(F)F)c2)n1`, in test [1], the inhibition is 88.4%. Further, the Activity in test [2] amounted to 14.32%.

In the case of `O=C(Nc1ccccc1)c1coc(-c2ccc(OC(F)F)c(OCC3CC3)c2)n1`, the inhibition in test [1] came to 38.8%. In addition, in test [2], the Activity turned out to be 15.78%.

`COC(=O)c1coc(-c2ccc(OC(F)F)c(OCC3CC3)c2)n1`: the inhibition in test [1] was 70.1%. Further, the Activity in test [2] was found to be 26.96%.

On to `O=C(NCc1ncccn1)c1c[nH]c(-c2ccc(OC(F)F)c(OC(F)F)c2)n1`, for which, in test [1], the inhibition is 96.3%. For the same molecule, in test [2], the Activity stood at 4.06%.

With `COc1cc(-c2nc(C(=O)NCc3c(F)cccc3F)c[nH]2)cc(OC)c1OC(F)F`, in test [1], the inhibition worked out at 33.3%.

Turning to `O=C(Nc1nc2ccccc2s1)c1coc(-c2ccc(OC(F)F)c(OCC3CC3)c2)n1`, the inhibition in test [1] stood at 33.4%. For the same molecule, the Activity in test [2] was 25.84%.

For the molecule `O=C(NCc1ccccc1)c1c[nH]c(-c2ccc(OC(F)F)c(OCC3CC3)c2)n1`, the inhibition in test [1] amounted to 91.1%. The Activity in test [2] was 8.88%.

Take `O=C(Nc1ccncc1)c1coc(-c2ccc(OC(F)F)c(OCC3CC3)c2)n1`: in test [1], the inhibition amounted to 59%. Further, in test [2], the Activity came to 1.77%.

Consider `Cn1ccc(NC(=O)c2c[nH]c(-c3ccc(OC(F)F)c(OCC4CC4)c3)n2)n1`, for which the inhibition in test [1] was determined as 58.8%. Moreover, the Activity in test [2] is listed as 18.46%.

With `Cn1cc(NC(=O)c2c[nH]c(-c3ccc(OC(F)F)c(OCC4CC4)c3)n2)cn1`, in test [1], the inhibition was found to be 78.8%. In addition, the Activity in test [2] turned out to be 27.5%.

Turning to `O=C(NCc1ccccc1)c1coc(-c2ccc(OC(F)F)c(OCC3CC3)c2)n1`, the inhibition in test [1] is 89.8%. Further, in test [2], the Activity was 8.13%.

For the molecule `Cc1ccc(-c2nc(C(=O)Nc3ccncc3)c[nH]2)cc1C`, the inhibition in test [1] came out at 3.4%. For the same molecule, in test [2], the Activity amounted to 11.94%.

In the case of `O=C(Nc1ccc2ncsc2c1)c1coc(-c2ccc(OC(F)F)c(OCC3CC3)c2)n1`, in test [1], the inhibition is 39.6%. For the same molecule, in test [2], the Activity was determined as 25.05%.

Take `O=C(NCc1ncccn1)c1c[nH]c(-c2cc(OCC3CC3)c(OC(F)F)c(OCC3CC3)c2)n1`: the inhibition in test [1] came out at 1.8%.

For the molecule `COc1cc(-c2nc(C(=O)NCc3ncccn3)c[nH]2)cc(OC)c1OC(F)F`, the inhibition in test [1] was found to be 0.8%.
